Results from article PMC12598616, “Design and optimization of caspase-1-responsive fluorescent probes for pyroptosis imaging and anti-pyroptosis drug screening” (Chemical Science, 2025).

Test system: caspase-4
Test: Selectivity of probes: caspase-4
Assay type: biochemical, human
Details: caspase-4 2 U/mL, 37 °C, 2 h, λex 510 nm, λem 585 nm
Text: The resin used for SPPS was purchased from GL Biochem (Shanghai, China). Lipopolysaccharide (LPS, L2630), Nigericin and ATP (11140965001) were purchased from Merck (Shanghai, China) and Invitrogen (Shanghai, China), respectively. Cell culture plates were sourced from Wuxi NEST Biotechnology. Recombinant human caspase-1, caspase-3, caspase-4, and caspase-8 were obtained from Abcam and MCE (Shanghai, China). Anti-cleaved caspase-1 antibody, anti-GAPDH antibody, and goat anti-Rabbit/anti-mouse lgG/HRP were purchased from CST (USA) and Beyotime […]
(Shanghai, China). […]
Medical College (ethical approval number ZJCLA-IACUC-20011003). […]
To investigate the sensitivity of the probes for caspase-1, varying concentration of caspase-1 (0, 0.2, 0.4, 0.6, 0.8, 1.0, 1.25, 1.5, 1.75, 2, 2.5, 3 U/mL) were incubated with FPy1 (5 μM), YPy1 (5 μM) and WPy1 (5 μM) respectively in caspase-1 assay buffer (50 mM HEPES, 50 mM NaCl, 0.1 % chaps, 5 % glycerol, 10 mM DTT, 10 mM EDTA) at 37 °C for 2 hours. Fluorescence spectra were recorded using Hitachi F-2700 spectrophotometer with an excitation at 510 nm (Photomultiplier voltage 700 V; Slit widths ex: 10 nm and em =5.0 nm). […] The limit of detection (LoD) was calculated from 3σ/k, in which σ represents the standard deviation of 15 blank measurements. […]
10 nm and em =5.0 nm). The fluorescence intensity of FPy1, YPy1 and WPy1 at 585 nm were plotted separately against […]

Substance	fluorescence response to caspase-4
–FLTDG– [FPy1, RhoB donor, hNR quencher]	almost no response
–YVADG– [YPy1, caspase-1-responsive FRET probe with recognition peptide –YVADG–; RhoB donor, hNR quencher]	almost no response
